Data as given in paper PMC8379219 (Nature Communications, 2021).
Several values for one entry are separate records, joined by “and”; a condition that tells them apart may be missing. Identical values can stand only once. Entries after “also recorded” stand apart in the source; their conditions may differ. Like-named read-outs stand apart in the source and are kept apart here.

Assays:
SERT [1] = molecular target: T1, SERT (Homo sapiens, UniProt P31645); assay: [3H]IMI dissociation from SERT by VLZ in absence or presence of 10 µM Fab fragment; type: binding; conditions: for Fab fragment VLZ allostery w [3H]IMI Dissoc (Suppl. Fig 3A): ctrl = 1
T1 construct: expressed in transfected cells; host or cells: membranes of COS-7 cells, transient transfection

SERT [2] = molecular target: T1, SERT; assay: [3H]S-CIT dissociation from SERT by VLZ in absence or presence of 10 µM Fab fragment; type: binding
SERT WT [3] = molecular target: T2, SERT WT (Homo sapiens, UniProt P31645)
SERT Y95F = SERT Y95F (Homo sapiens, UniProt P31645, Y95F)
SERT S438T = SERT S438T (Homo sapiens, UniProt P31645, S438T)
SERT WT [4] = molecular target: T2, SERT WT; remark: listed apart in the source
SERT WT [5] = molecular target: T2, SERT WT; conditions: Log[VLZ] (M) -4; ctrl = 1; replicates
SERT WT [6] = molecular target: T2, SERT WT; assay: [3H]IMI dissociation rate assay (allosteric potency), COS-7 membranes; type: binding; design: expressed in transfected cells; host or cells: COS-7;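 note: radioligand pre-bound 30 min at room temperature to equilibrium, then dissociation followed over 5–70 min, ended by filtration through GF/B filters, at least three independent experiments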

T2 sequence (P31645 whole entry): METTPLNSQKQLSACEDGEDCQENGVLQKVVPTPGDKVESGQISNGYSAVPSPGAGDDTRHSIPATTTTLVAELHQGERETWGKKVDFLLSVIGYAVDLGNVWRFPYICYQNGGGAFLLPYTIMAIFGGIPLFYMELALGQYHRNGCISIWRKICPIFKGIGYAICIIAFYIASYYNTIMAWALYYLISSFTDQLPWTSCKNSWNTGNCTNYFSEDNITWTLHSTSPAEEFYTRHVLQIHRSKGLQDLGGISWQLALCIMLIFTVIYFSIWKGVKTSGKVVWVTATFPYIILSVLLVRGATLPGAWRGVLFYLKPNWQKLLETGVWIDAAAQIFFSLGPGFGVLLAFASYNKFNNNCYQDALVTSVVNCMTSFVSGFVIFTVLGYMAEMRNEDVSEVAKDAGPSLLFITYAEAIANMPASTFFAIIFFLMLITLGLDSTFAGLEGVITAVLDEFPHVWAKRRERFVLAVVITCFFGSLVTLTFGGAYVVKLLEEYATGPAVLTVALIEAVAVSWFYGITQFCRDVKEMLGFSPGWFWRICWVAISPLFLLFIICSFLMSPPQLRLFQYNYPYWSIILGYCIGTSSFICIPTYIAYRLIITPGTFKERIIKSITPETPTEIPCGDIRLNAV
T1 sequence (P31645 whole entry, the tested form may be a part): as the sequence (P31645 whole entry) above
Sequence of SERT S438T (P31645 whole entry S438T): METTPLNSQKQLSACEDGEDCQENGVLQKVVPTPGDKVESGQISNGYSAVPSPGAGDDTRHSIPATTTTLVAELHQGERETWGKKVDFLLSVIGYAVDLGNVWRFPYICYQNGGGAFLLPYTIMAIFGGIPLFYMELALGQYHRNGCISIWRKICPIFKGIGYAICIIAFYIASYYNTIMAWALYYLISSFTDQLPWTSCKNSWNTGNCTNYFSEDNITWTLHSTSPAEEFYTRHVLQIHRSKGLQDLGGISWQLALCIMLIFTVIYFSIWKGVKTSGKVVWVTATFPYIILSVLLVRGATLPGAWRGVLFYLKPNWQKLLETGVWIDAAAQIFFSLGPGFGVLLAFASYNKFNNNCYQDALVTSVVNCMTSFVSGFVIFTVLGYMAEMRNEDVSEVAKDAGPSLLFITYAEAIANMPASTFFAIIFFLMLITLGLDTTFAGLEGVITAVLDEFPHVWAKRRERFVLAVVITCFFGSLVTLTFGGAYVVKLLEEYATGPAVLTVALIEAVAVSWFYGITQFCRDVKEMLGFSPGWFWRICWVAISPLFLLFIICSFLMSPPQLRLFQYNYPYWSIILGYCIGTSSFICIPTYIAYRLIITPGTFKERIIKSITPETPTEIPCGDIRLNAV
Sequence of SERT Y95F (P31645 whole entry Y95F): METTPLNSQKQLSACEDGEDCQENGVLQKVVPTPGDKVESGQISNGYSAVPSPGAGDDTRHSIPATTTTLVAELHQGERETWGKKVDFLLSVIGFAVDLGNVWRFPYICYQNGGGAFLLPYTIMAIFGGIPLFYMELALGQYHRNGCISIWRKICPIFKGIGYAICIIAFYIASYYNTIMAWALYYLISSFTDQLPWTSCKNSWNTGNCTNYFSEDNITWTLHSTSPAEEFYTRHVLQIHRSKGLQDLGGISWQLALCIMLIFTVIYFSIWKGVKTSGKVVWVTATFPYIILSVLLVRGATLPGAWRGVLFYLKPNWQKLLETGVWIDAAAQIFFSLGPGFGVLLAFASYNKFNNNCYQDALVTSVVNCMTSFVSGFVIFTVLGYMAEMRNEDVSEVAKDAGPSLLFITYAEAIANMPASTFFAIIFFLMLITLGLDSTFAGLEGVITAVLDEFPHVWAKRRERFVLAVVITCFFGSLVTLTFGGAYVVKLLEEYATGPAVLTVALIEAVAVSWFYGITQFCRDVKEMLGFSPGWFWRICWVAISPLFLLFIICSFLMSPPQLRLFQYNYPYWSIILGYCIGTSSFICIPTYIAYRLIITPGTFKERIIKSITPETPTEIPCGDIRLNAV

N#Cc1ccc2[nH]cc(CCCCN3CCN(c4ccc5oc(C(N)=O)cc5c4)CC3)c2c1 [VLZ, Vilazodone]
Effect of Fab fragment on allosteric potency of VLZ ([3H]IMI dissociation) (SERT [1]; 10 µM Fab, n = 1): no apparent effect; also recorded: unaffected | Fab fragment VLZ allostery w [3H]IMI Dissoc (Suppl. Fig 3A) (SERT [1]; SERT WT, Log[VLZ] (M) -6): 0 | Fab fragment VLZ allostery w [3H]IMI Dissoc (Suppl. Fig 3A) (SERT [1]; SERT WT, Log[VLZ] (M) -7.34): 0.0851 | Fab fragment VLZ allostery w [3H]IMI Dissoc (Suppl. Fig 3A) (SERT [1]; SERT WT, Log[VLZ] (M) -7.817): 0.2902 | Fab fragment VLZ allostery w [3H]IMI Dissoc (Suppl. Fig 3A) (SERT [1]; SERT WT, Log[VLZ] (M) -8.294): 0.4378 | Fab fragment VLZ allostery w [3H]IMI Dissoc (Suppl. Fig 3A) (SERT [1]; w. Fab fragment, Log[VLZ] (M) -6): 0 | Fab fragment VLZ allostery w [3H]IMI Dissoc (Suppl. Fig 3A) (SERT [1]; w. Fab fragment, Log[VLZ] (M) -7.34): 0.077 | Fab fragment VLZ allostery w [3H]IMI Dissoc (Suppl. Fig 3A) (SERT [1]; w. Fab fragment, Log[VLZ] (M) -7.817): 0.2744 | Fab fragment VLZ allostery w [3H]IMI Dissoc (Suppl. Fig 3A) (SERT [1]; w. Fab fragment, Log[VLZ] (M) -8.294): 0.5049 | Effect of Fab fragment on allosteric potency of VLZ ([3H]S-CIT dissociation) (SERT [2]; 10 µM Fab, n = 1): no apparent effect; also recorded: unaffected | Fab fragment VLZ allostery w [3H]S-CIT Dissoc (Suppl. Fig 3B) (SERT [2]; SERT WT, Log[VLZ] (M) -4, ctrl 0.9997): 0 | Fab fragment VLZ allostery w [3H]S-CIT Dissoc (Suppl. Fig 3B) (SERT [2]; SERT WT, Log[VLZ] (M) -6.046, ctrl 0.9997): 0.25 | Fab fragment VLZ allostery w [3H]S-CIT Dissoc (Suppl. Fig 3B) (SERT [2]; SERT WT, Log[VLZ] (M) -6.523, ctrl 0.9997): 0.5086 | Fab fragment VLZ allostery w [3H]S-CIT Dissoc (Suppl. Fig 3B) (SERT [2]; SERT WT, Log[VLZ] (M) -7, ctrl 0.9997): 0.7481 | Fab fragment VLZ allostery w [3H]S-CIT Dissoc (Suppl. Fig 3B) (SERT [2]; w. Fab fragment, Log[VLZ] (M) -6.046, ctrl 0.9993): 0.2288 | Fab fragment VLZ allostery w [3H]S-CIT Dissoc (Suppl. Fig 3B) (SERT [2]; w. Fab fragment, Log[VLZ] (M) -6.523, ctrl 0.9993): 0.3777 | Fab fragment VLZ allostery w [3H]S-CIT Dissoc (Suppl. Fig 3B) (SERT [2]; w. Fab fragment, Log[VLZ] (M) -7, ctrl 0.9993): 0.7313 | Hill slope for inhibition of [3H]5-HT uptake (SERT WT [3]): ~ 2 | [3H]5-HT uptake inhibition (SERT WT [3]; Log[VLZ] (M) -7.5): 2.2056 and 2.462 and 3.034 and 2.528 | [3H]5-HT uptake inhibition (SERT WT [3]; Log[VLZ] (M) -9.5): 92.7238 | [3H]5-HT uptake inhibition (SERT WT [3]; Log[VLZ] (M) -10): 95.9437 | [3H]5-HT uptake inhibition (SERT WT [3]; Log[VLZ] (M) -10.5): 103.235 | [3H]5-HT uptake inhibition (SERT WT [3]; Log[VLZ] (M) -11): 103.321 and 85.9044 | [3H]5-HT uptake inhibition S1 Mutants (SERT Y95F; Log[VLZ] (M) -7.5): 2.147 and 2.505 and 1.589 and 2.318 | [3H]5-HT uptake inhibition S1 Mutants (SERT Y95F; Log[VLZ] (M) -8): 11.0058 and 6.5 and 7.569 | [3H]5-HT uptake inhibition S1 Mutants (SERT Y95F; Log[VLZ] (M) -8.5): 23.4424 and 34.8885 and 39.8853 and 24.3563 | [3H]5-HT uptake inhibition S1 Mutants (SERT Y95F; Log[VLZ] (M) -9): 48.3194 and 75.9314 and 68.9865 and 51.2725 | [3H]5-HT uptake inhibition S1 Mutants (SERT Y95F; Log[VLZ] (M) -9.5): 92.5116 and 89.0566 | [3H]5-HT uptake inhibition S1 Mutants (SERT Y95F; Log[VLZ] (M) -10): 97.9526 and 106.373 and 93.3855 and 88.0755 | [3H]5-HT uptake inhibition S1 Mutants (SERT Y95F; Log[VLZ] (M) -10.5): 100.1 and 92.5093 and 97.0473 and 106.269 | [3H]5-HT uptake inhibition S1 Mutants (SERT Y95F; Log[VLZ] (M) -11): 98.0826 and 93.7606 | [3H]5-HT uptake inhibition S1 Mutants (SERT Y95F; Log[VLZ] (M) -12): 96.3138 and 97.3606 and 96.312 and 100.229 | [3H]5-HT uptake inhibition S1 Mutants (SERT S438T; Log[VLZ] (M) -8): 14.775 and 11.8665 and 12.0164 and 12.3243 | [3H]5-HT uptake inhibition S1 Mutants (SERT S438T; Log[VLZ] (M) -8.5): 41.3444 and 41.8738 and 54.9583 and 30.416 | [3H]5-HT uptake inhibition S1 Mutants (SERT S438T; Log[VLZ] (M) -9): 69.6167 and 63.3209 and 84.8416 and 54.068 | [3H]5-HT uptake inhibition S1 Mutants (SERT S438T; Log[VLZ] (M) -9.5): 80.1053 | [3H]5-HT uptake inhibition S1 Mutants (SERT S438T; Log[VLZ] (M) -10): 87.6994 and 103.115 and 83.4593 | [3H]5-HT uptake inhibition S1 Mutants (SERT S438T; Log[VLZ] (M) -10.5): 92.1556 and 93.2014 and 102.815 and 97.2843 | [3H]5-HT uptake inhibition S1 Mutants (SERT S438T; Log[VLZ] (M) -11): 102.782 and 106.151 and 94.1598 | [3H]5-HT uptake inhibition S1 Mutants (SERT S438T; Log[VLZ] (M) -12): 100.15 and 89.7676 and 98.9977 | [3H]S-CIT binding inhibition (SERT WT [4]; Log[VLZ] (M) -6): 6.1374 and 6.267 and 9.306 and 7.924 | [3H]S-CIT binding inhibition (SERT WT [4]; Log[VLZ] (M) -7): 15.0029 and 12.5666 and 12.6935 and 13.2177 and 16.0372 and 22.3569 | [3H]S-CIT binding inhibition (SERT WT [4]; Log[VLZ] (M) -8): 20.242 and 17.0122 and 17.5714 and 27.4498 and 22.8662 | [3H]S-CIT binding inhibition (SERT WT [4]; Log[VLZ] (M) -9.5): 93.155 and 87.0219 and 91.9361 and 94.5429 | [3H]S-CIT binding inhibition (SERT WT [4]; Log[VLZ] (M) -10): 90.7785 and 92.3382 and 88.1671 and 94.4965 | [3H]S-CIT binding inhibition (SERT WT [4]; Log[VLZ] (M) -11): 106.327 and 106.337 and 110.336 and 113.218 and 118.473 and 111.36 | [3H]S-CIT binding inhibition (SERT WT [4]; Log[VLZ] (M) -12): 92.524 and 93.4609 and 92.9453 and 86.9585 and 90.0353 | VLZ Allosteric Potency SERT WT, [3H]S-CIT dissociation (Fig. 2C) (SERT WT [5]): 0 | [3H]IMI dissociation (Fig. 2B) (SERT WT [6]; 0.5 nM, time 5 min): 98.1806 | [3H]IMI dissociation (Fig. 2B) (SERT WT [6]; 0.5 nM, time 10 min): 95.2605 | [3H]IMI dissociation (Fig. 2B) (SERT WT [6]; 0.5 nM, time 15 min): 95.3158 | [3H]IMI dissociation (Fig. 2B) (SERT WT [6]; 0.5 nM, time 20 min): 91.8569 | [3H]IMI dissociation (Fig. 2B) (SERT WT [6]; 0.5 nM, time 30 min): 86.7456 | [3H]IMI dissociation (Fig. 2B) (SERT WT [6]; 0.5 nM, time 50 min): 81.092 | [3H]IMI dissociation (Fig. 2B) (SERT WT [6]; 0.5 nM, time 70 min): 71.6978 | [3H]IMI dissociation (Fig. 2B) (SERT WT [6]; 1.6 nM, time 5 min): 98.6368 | [3H]IMI dissociation (Fig. 2B) (SERT WT [6]; 1.6 nM, time 10 min): 97.1109 | [3H]IMI dissociation (Fig. 2B) (SERT WT [6]; 1.6 nM, time 15 min): 94.6142 | [3H]IMI dissociation (Fig. 2B) (SERT WT [6]; 1.6 nM, time 20 min): 91.8363
